{"source": "patent US20110275649A1", "about": "“Combination therapy for the prevention of statin induced diabetes” (Palmetto Pharmaceuticals LLC, priority 2010, published 2011)", "origin": "cited, not measured here", "key": {"[1]": {"system": "3-keto-CoA-thiolase, or 3-KAT"}, "[2]": {"biological_target": "late sodium channel (Homo sapiens, UniProt Q14524)", "sequence (Q14524 whole entry)": "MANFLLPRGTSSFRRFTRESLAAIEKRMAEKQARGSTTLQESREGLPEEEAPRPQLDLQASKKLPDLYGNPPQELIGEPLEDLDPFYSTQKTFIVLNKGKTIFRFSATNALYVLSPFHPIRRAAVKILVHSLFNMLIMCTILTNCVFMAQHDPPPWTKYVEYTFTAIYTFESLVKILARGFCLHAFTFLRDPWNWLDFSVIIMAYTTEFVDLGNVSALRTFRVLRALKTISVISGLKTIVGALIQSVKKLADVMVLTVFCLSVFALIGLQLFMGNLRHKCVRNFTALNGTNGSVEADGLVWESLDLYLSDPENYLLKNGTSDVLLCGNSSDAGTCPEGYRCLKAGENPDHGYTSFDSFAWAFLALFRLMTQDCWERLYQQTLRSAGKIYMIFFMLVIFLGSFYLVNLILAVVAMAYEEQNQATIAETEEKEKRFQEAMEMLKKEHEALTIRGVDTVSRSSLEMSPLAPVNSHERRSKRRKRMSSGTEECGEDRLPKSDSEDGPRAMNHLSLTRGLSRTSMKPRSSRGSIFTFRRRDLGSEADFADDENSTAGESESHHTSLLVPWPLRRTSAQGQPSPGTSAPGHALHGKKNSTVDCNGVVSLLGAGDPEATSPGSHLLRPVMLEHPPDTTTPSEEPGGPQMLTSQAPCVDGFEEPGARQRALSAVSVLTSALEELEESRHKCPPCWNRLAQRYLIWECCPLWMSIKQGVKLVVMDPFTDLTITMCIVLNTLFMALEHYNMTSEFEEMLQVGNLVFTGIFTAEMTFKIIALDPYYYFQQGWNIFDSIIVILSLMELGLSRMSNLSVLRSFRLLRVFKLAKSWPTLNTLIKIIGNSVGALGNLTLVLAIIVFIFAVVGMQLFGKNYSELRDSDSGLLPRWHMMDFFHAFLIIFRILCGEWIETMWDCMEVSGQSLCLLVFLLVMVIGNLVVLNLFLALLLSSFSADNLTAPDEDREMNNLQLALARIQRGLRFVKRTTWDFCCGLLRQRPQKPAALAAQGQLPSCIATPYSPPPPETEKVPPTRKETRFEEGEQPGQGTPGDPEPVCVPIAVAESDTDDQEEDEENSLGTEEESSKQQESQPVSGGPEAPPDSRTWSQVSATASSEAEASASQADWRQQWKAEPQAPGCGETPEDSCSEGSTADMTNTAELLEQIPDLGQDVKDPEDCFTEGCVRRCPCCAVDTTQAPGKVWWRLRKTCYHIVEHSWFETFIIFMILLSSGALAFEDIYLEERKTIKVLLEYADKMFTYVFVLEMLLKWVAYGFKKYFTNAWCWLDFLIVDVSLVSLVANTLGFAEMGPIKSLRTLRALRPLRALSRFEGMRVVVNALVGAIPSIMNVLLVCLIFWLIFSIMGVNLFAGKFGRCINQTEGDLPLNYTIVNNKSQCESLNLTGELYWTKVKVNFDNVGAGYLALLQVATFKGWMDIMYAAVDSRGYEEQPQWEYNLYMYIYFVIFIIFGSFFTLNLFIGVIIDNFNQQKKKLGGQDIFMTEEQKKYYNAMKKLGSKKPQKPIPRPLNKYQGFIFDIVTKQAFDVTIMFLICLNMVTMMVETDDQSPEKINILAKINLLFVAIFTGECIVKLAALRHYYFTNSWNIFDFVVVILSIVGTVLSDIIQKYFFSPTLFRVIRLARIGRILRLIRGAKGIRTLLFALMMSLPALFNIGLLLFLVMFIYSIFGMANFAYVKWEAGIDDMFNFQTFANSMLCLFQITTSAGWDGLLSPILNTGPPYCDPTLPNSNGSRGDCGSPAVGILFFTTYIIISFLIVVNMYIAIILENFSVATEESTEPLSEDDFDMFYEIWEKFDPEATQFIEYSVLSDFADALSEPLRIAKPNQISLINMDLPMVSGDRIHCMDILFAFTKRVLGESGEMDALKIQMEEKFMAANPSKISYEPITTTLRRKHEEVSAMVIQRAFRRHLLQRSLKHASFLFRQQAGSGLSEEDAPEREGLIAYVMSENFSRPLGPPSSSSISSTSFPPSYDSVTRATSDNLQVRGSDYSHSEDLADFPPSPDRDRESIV"}, "[3]": {"system": "QT interval"}, "[4]": {"biological_target": "CYP3A4 (Homo sapiens, UniProt P08684)", "sequence (P08684 whole entry)": "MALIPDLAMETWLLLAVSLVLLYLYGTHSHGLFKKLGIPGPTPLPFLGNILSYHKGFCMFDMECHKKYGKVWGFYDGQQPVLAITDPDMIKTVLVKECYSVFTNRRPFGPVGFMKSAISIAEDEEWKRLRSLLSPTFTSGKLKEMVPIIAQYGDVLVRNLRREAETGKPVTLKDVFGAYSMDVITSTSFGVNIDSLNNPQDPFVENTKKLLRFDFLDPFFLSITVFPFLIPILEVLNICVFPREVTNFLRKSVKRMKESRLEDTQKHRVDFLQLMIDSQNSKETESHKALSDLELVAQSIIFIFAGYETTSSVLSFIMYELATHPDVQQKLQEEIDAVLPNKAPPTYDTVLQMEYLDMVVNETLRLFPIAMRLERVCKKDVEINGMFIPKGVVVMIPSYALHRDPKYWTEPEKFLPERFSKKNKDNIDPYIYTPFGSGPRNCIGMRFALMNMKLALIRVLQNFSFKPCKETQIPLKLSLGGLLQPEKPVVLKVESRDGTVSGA"}, "[5]": {"details": "compared with pravastatin"}, "[6]": {"details": "JUPITER trial"}, "[7]": {"system": "carnitine palmitoyltransferase-1: CPT-1", "details": "in vitro studies; e.g. by inhibition of CPT-1"}}}
{"smiles": "COc1ccc(CN2CCNCC2)c(OC)c1OC", "note": "[trimetazidine]", "values": [{"measurement": "inhibition of 3-KAT", "setting": "[1]", "value": "inhibition of the enzyme 3-keto-CoA-thiolase"}]}
{"smiles": "COc1ccccc1OCC(O)CN1CCN(CC(=O)Nc2c(C)cccc2C)CC1", "note": "(stereo not drawn) [ranolazine]", "values": [{"measurement": "late sodium channel inhibition", "setting": "[2]", "value": "inhibits the late sodium channel"}, {"measurement": "arrhythmogenic events from QT prolongation", "setting": "[3]; Merlin-TIMI 36", "value": "did not cause excess arrythmogenic events"}, {"measurement": "QT interval", "setting": "[3]; in vivo", "value": "causes QT interval prolongation"}]}
{"smiles": "O=C(O)C[C@H](O)C[C@H](O)/C=C/c1c(C2CC2)nc2ccccc2c1-c1ccc(F)cc1", "note": "[pitavastatin]", "values": [{"measurement": "metabolism by CYP3A4", "setting": "[4]", "value": "does not undergo metabolism by the 3A4 system"}]}
{"smiles": "CC(C)c1c(C(=O)Nc2ccccc2)c(-c2ccccc2)c(-c2ccc(F)cc2)n1CC[C@@H](O)C[C@@H](O)CC(=O)O", "note": "[atorvastatin]", "values": [{"measurement": "likelihood to induce diabetes", "setting": "[5]", "value": "much more likely to induce diabetes than pravastatin"}]}
{"smiles": "CC(C)c1nc(N(C)S(C)(=O)=O)nc(-c2ccc(F)cc2)c1/C=C/[C@@H](O)C[C@@H](O)CC(=O)O", "note": "[rosuvastatin]", "values": [{"measurement": "diabetes in the group receiving the statin", "setting": "[6]", "value": "increase in diabetes"}]}
{"smiles": "CC[C@H](C)C(=O)O[C@H]1C[C@H](O)C=C2C=C[C@H](C)[C@H](CC[C@@H](O)C[C@@H](O)CC(=O)O)[C@H]21", "note": "[pravastatin]", "values": [{"measurement": "lipid / water solubility", "value": "water soluble"}]}
{"smiles": "C1CCC(C(CC2CCCCN2)C2CCCCC2)CC1", "note": "(stereo not drawn) [perhexiline]", "values": [{"measurement": "myocardial fatty acid catabolism", "setting": "[7]", "value": "causes inhibition of myocardial fatty acid catabolism"}]}
